Assay results from patent US9044437B2, “Method for treating alzheimer's disease using pharmacological chaperones to increase the activity of gangliosidases” (Amicus Therapeutics, Inc., priority 2009, dated 2015).
Like-named read-outs stand apart in the source and are kept apart here.

What was measured:
Neu 1 [1] = target: T1, Neu 1 (Homo sapiens, UniProt Q99519); settings: marked *: Values reported in the literature; cited from earlier work
Neu 2 = Neu 2 (Homo sapiens, UniProt Q9Y3R4); settings: marked *: Values reported in the literature; cited from earlier work
Neu 4 = target: T2, Neu 4 (Homo sapiens, UniProt Q8WWR8); settings: marked *: Values reported in the literature; cited from earlier work
T2 sequence (Q8WWR8 1-484): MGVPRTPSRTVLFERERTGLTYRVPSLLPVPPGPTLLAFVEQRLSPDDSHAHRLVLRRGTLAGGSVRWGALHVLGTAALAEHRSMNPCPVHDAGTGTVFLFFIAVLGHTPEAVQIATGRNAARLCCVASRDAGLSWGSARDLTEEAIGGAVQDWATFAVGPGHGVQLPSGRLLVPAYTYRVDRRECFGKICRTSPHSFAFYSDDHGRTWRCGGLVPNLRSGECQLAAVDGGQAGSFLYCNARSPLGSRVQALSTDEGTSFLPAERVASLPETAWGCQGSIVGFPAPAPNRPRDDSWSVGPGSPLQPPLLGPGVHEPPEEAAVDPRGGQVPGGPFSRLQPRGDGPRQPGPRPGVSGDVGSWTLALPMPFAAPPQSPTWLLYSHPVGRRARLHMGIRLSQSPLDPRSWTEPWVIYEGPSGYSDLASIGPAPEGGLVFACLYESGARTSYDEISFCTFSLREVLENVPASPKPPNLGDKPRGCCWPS

Neu 3 = target: T3, Neu 3 (Homo sapiens, UniProt Q9UQ49); settings: marked *: Values reported in the literature; cited from earlier work
T3 sequence (Q9UQ49 1-428): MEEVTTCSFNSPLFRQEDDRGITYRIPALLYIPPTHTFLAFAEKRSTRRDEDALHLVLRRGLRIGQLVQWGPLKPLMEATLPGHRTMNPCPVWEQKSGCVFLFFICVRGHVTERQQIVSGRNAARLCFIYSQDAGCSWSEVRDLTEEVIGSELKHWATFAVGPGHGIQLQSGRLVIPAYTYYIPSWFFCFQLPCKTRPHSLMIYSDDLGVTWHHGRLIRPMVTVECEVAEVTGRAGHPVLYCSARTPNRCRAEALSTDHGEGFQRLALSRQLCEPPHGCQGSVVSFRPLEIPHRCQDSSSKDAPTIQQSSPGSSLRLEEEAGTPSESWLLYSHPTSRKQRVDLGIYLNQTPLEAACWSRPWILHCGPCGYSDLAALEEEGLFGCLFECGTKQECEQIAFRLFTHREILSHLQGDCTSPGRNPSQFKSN

[2] = target: T4, wild-type endogenous neuraminidase 1 (Homo sapiens, UniProt Q99519); test: Neuraminidase 1 levels in fibroblasts derived from healthy individuals; assay type: cell-based; settings: 5 days
T4 construct: selectively increases wild-type endogenous neuraminidase-1 levels in fibroblasts; endogenous in cells; host or cells: healthy control fibroblasts
Description: The data shown in FIG. 7 was generated as follows. Healthy control fibroblasts were treated for 5 days either with NB-DANA or IFG. The cells were scraped, harvested by centrifugation, and the cell pellet was solubilized using RIPA buffer (1% TX100, 0.5% Taurodeoxycholate, and 0.1% SDS in TBS plus protease inhibitors). The cell lysate was immunoblotted using a polyclonal antibody specific for Neu1 (Novus).
(A) The pharmacological chaperone NB-DANA increased wild-type endogenous neuraminidase 1 levels by up to 2 fold. […] Fibroblasts derived from healthy individuals were treated with NB-DANA or IFG for 5 days and enzyme activity was measured in cell lysates using the substrate NANA-4-MU. Enzyme activity was expressed as nmol of 4-MU generated per mg protein per hour.

[3] = target: B-Hex (β-hexosaminidase, Hex A/B); test: Comparative selectivity of pharmacological chaperones: B-Hex inhibition; assay type: biochemical; settings: marked **: Values reported as Ki's; read-out: IC50 B-Hex, values reported as Ki's
wild-type β-Hex = target: T5, wild-type β-Hex (Mus musculus, UniProt P20060); test: Cellular β-Hex levels in N2A mouse neuroblastomas (HexB immunoblot); assay type: cell-based; settings: 10 μM, 3 days
T5 construct: increase in endogenous wild-type β-hexosaminidase levels and sAPPα shedding in N2A mouse neuroblastomas; endogenous in cells; host or cells: N2A mouse neuroblastoma cells
T5 sequence (P20060 32-536): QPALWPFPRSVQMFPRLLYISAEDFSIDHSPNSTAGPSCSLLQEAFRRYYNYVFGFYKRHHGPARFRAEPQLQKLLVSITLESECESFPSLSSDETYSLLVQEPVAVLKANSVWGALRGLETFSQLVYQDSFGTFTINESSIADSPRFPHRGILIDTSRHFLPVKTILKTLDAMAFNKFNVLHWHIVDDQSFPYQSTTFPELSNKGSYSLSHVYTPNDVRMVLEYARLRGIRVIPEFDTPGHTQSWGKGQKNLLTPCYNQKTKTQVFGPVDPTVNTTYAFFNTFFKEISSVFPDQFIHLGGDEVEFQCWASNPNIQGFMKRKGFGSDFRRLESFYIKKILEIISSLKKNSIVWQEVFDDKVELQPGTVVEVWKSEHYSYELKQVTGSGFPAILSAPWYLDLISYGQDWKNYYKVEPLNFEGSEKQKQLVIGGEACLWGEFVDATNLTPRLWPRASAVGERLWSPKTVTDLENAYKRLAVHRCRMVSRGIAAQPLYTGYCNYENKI
Description: (§1) The data shown in FIG. 4 was generated as follows. N2A mouse neuroblastomas were treated for 3 days either with no compound or with 10 μM AdDNJ, 10 μM NGT or 10 μM DGJ. The cells were scraped, harvested by centrifugation, and the cell pellet was solubilized using RIPA buffer (1% TX100, 0.5% Taurodeoxycholate, and 0.1% SDS in TBS plus protease inhibitors). The cell lysate was immunoblotted using a rabbit polyclonal antibody specific for HexB (Abcam). The levels of sAPPα were determined by immunoblotting a small fraction (30 μl) of the growth media using 22C11 antibody (Millipore).
(§2) FIG. 4A) Treatment of N2A mouse neuroblastomas with 10 μM NGT and AdDNJ increased cellular levels of wild-type β-Hex while deoxygalactonojirimycin (DGJ), a pharmacological chaperone for the lysosomal enzyme acid α-galactosidase, had no effect on β-Hex levels.

sAPPα [4] = test: sAPPα shedding by N2A mouse neuroblastomas (22C11 immunoblot of media); assay type: cell-based; settings: 10 μM, 3 days
Description: as §1, §2

Neu 1 [5] = target: T1, Neu 1; test: Comparative selectivity: Neu 1 inhibition; assay type: biochemical
sAPPα [6] = test: sAPPα production by fibroblasts treated with NB-DGJ (6E10 immunoblot); assay type: cell-based, human; settings: Sandhoff fibroblasts, 5 days treatment
Description: The data shown in FIG. 3 was generated as follows. A wild type(healthy) fibroblast cell line (CRL2076; Coriell) and a fibroblast cell line from a Sandhoff patient (GM11707; Coriell) were cultured overnight in DMEM (plus 10% FBS) growth medium, followed by an overnight incubation in serum free media. Secreted proteins were collected by TCA precipitation (12.5%) of the growth media and analyzed by immunoblotting using 6E10 antibody (Covance) to determine the levels of sAPPα. […] To measure levels of secreted Aβ40 in media, fibroblasts (CRL2076 & GM11707) were cultured overnight in DMEM (plus 10% FBS) growth medium (3 wells/sample; 1 ml media/well), followed by an overnight incubation in serum free media. The 3 wells/sample were combined and mixed with 0.3 ml methanol, 30 μl 10% TFA (Trifluoroacetic acid). The samples were pre-concentrated using a Sepak C18 column (Waters) and then used in an ELISA assay (Covance) to determine the levels of Aβ40. To determine the levels of full length APP, fibroblasts (CRL2076 & GM11707) were cultured overnight in DMEM (plus 10% FBS) growth medium. […] Secreted proteins were collected by TCA precipitation (12.5%) of the growth media and analyzed by immunoblotting using 6E10 antibody (Covance) to determine the levels of sAPPα. […]

Sequence of Neu 2 (Q9Y3R4 whole entry): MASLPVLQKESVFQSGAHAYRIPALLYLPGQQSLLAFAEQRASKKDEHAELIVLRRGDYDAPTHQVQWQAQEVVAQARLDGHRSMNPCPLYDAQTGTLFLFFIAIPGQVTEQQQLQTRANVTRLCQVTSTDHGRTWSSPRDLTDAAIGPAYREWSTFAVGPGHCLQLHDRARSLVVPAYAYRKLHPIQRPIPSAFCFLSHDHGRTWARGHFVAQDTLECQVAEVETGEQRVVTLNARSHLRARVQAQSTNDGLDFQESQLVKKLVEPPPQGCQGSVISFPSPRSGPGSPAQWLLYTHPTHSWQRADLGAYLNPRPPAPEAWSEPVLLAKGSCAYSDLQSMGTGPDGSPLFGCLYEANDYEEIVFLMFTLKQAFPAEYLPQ

Compound: 5-(acetylamino)-4-[(aminoiminomethyl)-amino]-2,6-anhydro-3,4,5-trideoxy-D-glycero-D-galacto-non-2-enonic acid [Zanamivir]
- IC50 (Neu 1 [1]): 2710 µM

Compound: CC(=O)N[C@H]1[C@H]([C@H](O)[C@H](O)CO)OC(C(=O)Oc2ccccc2)=C[C@@H]1O [Phenyl DANA, Phenyl 2-deoxy-2,3-dehydro-N-acetylneuraminic acid, reference compound]
- IC50 (Neu 2): 865 µM
- IC50 (Neu 4): 810 µM
- IC50 (Neu 1 [1]): 13 µM
- IC50 (Neu 3): 320 µM

Compound: OC[C@H]1CNC[C@@H](O)[C@@H]1O [IFG, isofagomine, reference compound]
- effect on wild-type neuraminidase 1 levels [2]: does not increase

Compound: CC(=O)N[C@H]1[C@H]([C@H](O)[C@H](O)CO)OC(C(=O)O)=C[C@@H]1O [DANA, 2-deoxy-2,3-dehydro-N-acetylneuraminic acid]
- IC50 (Neu 3): 61 µM

Compound: CC(=O)N[C@H]1CN[C@H](CO)[C@@H](O)[C@@H]1O [AdDNJ, 2-acetamido-1,2-dideoxynojirimycin]
- Ki [3]: 0.7 µM
- cellular levels of wild-type β-Hex (wild-type β-Hex): increased
- shedding of neurotrophic sAPPα (sAPPα [4]): increased

Compound: OC[C@H]1NC[C@H](O)[C@@H](O)[C@H]1O [DGJ, deoxygalactonojirimycin, reference compound]
- cellular levels of wild-type β-Hex (wild-type β-Hex): no effect

Compound: CCCCOC(=O)C1=C[C@H](O)[C@@H](NC(C)=O)[C@H]([C@H](O)[C@H](O)CO)O1 [NB-DANA, n-butyl-2-deoxy-2,3-dehydro-N-acetylneuraminic acid]
- IC50 (Neu 1 [5]): 10 µM
- increase of wild-type endogenous neuraminidase 1 levels [2]: up to 2 fold
- IC50 (Neu 2): > 1000 µM
- IC50 (Neu 4): > 1000 µM
- IC50 (Neu 3): > 1000 µM

Compound: CCCCN1C[C@H](O)[C@@H](O)[C@@H](O)[C@H]1CO [N-butyl-deoxygalactonojirimycin]
- increase in production of sAPPα (sAPPα [6]): 35-40%
